Results taken from US20090239846A1, “Novel Compounds” (Glaxo Group Limited, priority 2005, published 2009).
Structures can show the parent of a compound that is named as a salt.

Each molecule was assayed against T1, Recombinant human p38α (Homo sapiens, UniProt Q16539) (assay: Fluorescence anisotropy kinase binding assay (standard or low volume)). Details: 12 nM p38α, 5 nM fluorescent ligand.
T1 construct: GST; made in house
Excerpt: (§1) The concentration of kinase enzyme should preferably be >2×Kf. The concentration of fluorescent ligand required will depend on the instrumentation used, and the fluorescent and physicochemical properties. The concentration used must be lower than the concentration of kinase enzyme, and preferably less than half the kinase enzyme concentration.
The fluorescent ligand is the following compound:
[drawing 329] • which is derived from 5-[2-(4-aminomethylphenyl)-5-pyridin-4-yl-1H-imidazol-4-yl]-2-chlorophenol and rhodamine green. Recombinant human p38α was expressed as a GST-tagged protein. To activate this protein, 3.5 μM unactivated p38α was incubated in 50 mM Tris-HCl pH 7.5, 0.1 mM EGTA, 0.1% 2-mercaptoethanol, 0.1 mM sodium vanadate, 10 mM MgAc, 0.1 mM ATP with 200 nM MBP-MKK6 DD at 30 degrees for 30 mins. Following activation p38α was re-purified and the activity assessed using a standard filter-binding assay. Protocol: All components are dissolved in buffer of composition 62.5 mM HEPES, pH 7.5, 1.25 mM CHAPS, 1 mM DTT, 12.5 mM MgCl2 with final concentrations of 12 nM p38α and 5 nM fluorescent ligand. 30 μl of this reaction mixture is added to wells containing 1 μl of various concentrations of test compound (0.28 nM-16.6 μM final) or DMSO vehicle (3% final) in NUNC 384 well black microtitre plate and equilibrated for 30-60 mins at room temperature. Fluorescence anisotropy is read in Molecular Devices Acquest (excitation 485 nm/emission 535 nm). Definitions: Ki=dissociation constant for inhibitor binding • Kf=dissociation constant for fluorescent ligand binding
as §1, with “2×Kf.” for “>2×Kf.”, “concentration. The fluorescent ligand is the following compound:” for “concentration.”
which is derived from 5-[2-(4-aminomethylphenyl)-5-pyridin-4-yl-1H-imidazol-4-yl]-2-chlorophenol and rhodamine green. Recombinant human p38α was expressed as a GST-tagged protein. To activate this protein, 3.5 μM unactivated p38α was incubated in 50 mM Tris-HCl pH 7.5, 0.1 mM EGTA, 0.1% 2-mercaptoethanol, 0.1 mM sodium vanadate, 10 mM MgAc, 0.1 mM ATP with 200 nM MBP-MKK6 DD at 30 degrees for 30 mins. Following activation p38α was re-purified and the activity assessed using a standard filter-binding assay. Protocol: All components are dissolved in buffer of composition 62.5 mM HEPES, pH 7.5, 1.25 mM CHAPS, 1 mM DTT, 12.5 mM MgCl2 with final concentrations of 12 nM p38α and 5 nM fluorescent ligand. […] of this reaction mixture is added to wells containing 0.1 μl of various concentrations of test compound (0.02 nM-25 μM final) or DMSO vehicle (1.7% final) in Greiner low volume 384 well black microtitre plate and equilibrated for 30-60 mins at room temperature. Fluorescence anisotropy is read in Molecular Devices Acquest (excitation 485 nm/emission 535 nm). Definitions: Ki dissociation constant for inhibitor binding • Kf=dissociation constant for fluorescent ligand binding It is noted that there are two assay formats shown above for the Fluorescence anisotropy kinase binding assay. The only difference between these two assays is the volume used and the plate type. […] The results described herein may have been performed in either assay format and are not differentiated as to which.

T1 sequence (Q16539 whole entry): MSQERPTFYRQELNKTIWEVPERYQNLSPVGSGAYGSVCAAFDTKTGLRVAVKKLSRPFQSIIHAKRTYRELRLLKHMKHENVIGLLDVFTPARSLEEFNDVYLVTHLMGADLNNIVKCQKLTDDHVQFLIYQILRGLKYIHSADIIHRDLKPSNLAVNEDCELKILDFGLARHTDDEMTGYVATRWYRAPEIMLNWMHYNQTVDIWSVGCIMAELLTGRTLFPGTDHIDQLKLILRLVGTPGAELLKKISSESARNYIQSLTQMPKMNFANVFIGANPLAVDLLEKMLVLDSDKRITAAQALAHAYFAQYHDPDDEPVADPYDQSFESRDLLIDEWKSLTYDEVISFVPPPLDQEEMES

Row | active in the assay (pIC50, p38α binding) | Compound
1 | active | CNC1CCN(c2nc(-c3cc(C(=O)Nc4ccc(F)cc4)ccc3C)c3c(n2)N(c2c(F)cccc2F)C(=O)NC3)CC1 [33(b), 3-{8-(2,6-difluorophenyl)-2-[4-(methylamino)-1-piperidinyl]-7-oxo-5,6,7,8-tetrahydropyrimido[4,5-d]pyrimidin-4-yl}-N-(4-fluorophenyl)-4-methylbenzamide]
2 | active | CSc1nc(-c2cc(C(=O)O)ccc2C)c2c(n1)N(c1c(F)cccc1F)C(=O)NC2 [1(d), 3-[8-(2,6-Difluorophenyl)-2-(methylthio)-7-oxo-5,6,7,8-tetrahydropyrimido[4,5-d]pyrimidin-4-yl]-4-methylbenzoic acid]
3 | active | CNCCNc1nc(-c2cc(C(=O)NC(C)C)ccc2C)c2c(n1)N(c1c(F)cccc1F)C(=O)NC2 [38(b), 3-(8-(2,6-difluorophenyl)-2-{[2-(methylamino)ethyl]amino}-7-oxo-5,6,7,8-tetrahydropyrimido[4,5-d]pyrimidin-4-yl)-4-methyl-N-(1-methylethyl)benzamide]
4 | active | CSc1nc(-c2cc(N)ccc2C)c2c(n1)N(c1c(F)cccc1F)C(=O)NC2 [10(b), 5-(5-Amino-2-methylphenyl)-1-(2,6-difluorophenyl)-7-(methylthio)-3,4-dihydropyrimido[4,5-d]pyrimidin-2(1H)-one]
5 | active | CNC(=O)c1ccc(C)c(-c2nc(SC)nc3c2CNC(=O)N3c2c(F)cccc2F)c1 [163(a), 3-[8-(2,6-difluorophenyl)-2-(methylthio)-7-oxo-5,6,7,8-tetrahydropyrimido[4,5-d]pyrimidin-4-yl]-N,4-dimethylbenzamide]
6 | active | CNCCNc1nc(-c2cc(C(=O)Nc3ccc(F)cc3)ccc2C)c2c(n1)N(c1c(F)cccc1F)C(=O)NC2 [31(b), 3-(8-(2,6-difluorophenyl)-2-{[2-(methylamino)ethyl]amino}-7-oxo-5,6,7,8-tetrahydropyrimido[4,5-d]pyrimidin-4-yl)-N-(4-fluorophenyl)-4-methylbenzamide]
7 | active | Cc1ccc(C(=O)NCC2CC2)cc1-c1nc(N2CCC(N)CC2)nc2c1CNC(=O)N2c1c(F)cccc1F [2(b), 3-[2-(4-Amino-1-piperidinyl)-8-(2,6-difluorophenyl)-7-oxo-5,6,7,8-tetrahydropyrimido[4,5-d]pyrimidin-4-yl]-N-(cyclopropylmethyl)-4-methylbenzamide]
8 | active | Cc1ccc(C(=O)NCCc2ccc(F)cc2)cc1-c1nc(N2CCC(N)CC2)nc2c1CNC(=O)N2c1c(F)cccc1F [3(b), 3-[2-(4-Amino-1-piperidinyl)-8-(2,6-difluorophenyl)-7-oxo-5,6,7,8-tetrahydropyrimido[4,5-d]pyrimidin-4-yl]-N-[2-(4-fluorophenyl)ethyl]-4-methylbenzamide]
9 | active | Cc1ccc(NC(=O)c2ccsc2)cc1-c1nc(NC2CC(C)(C)NC(C)(C)C2)nc2c1CNC(=O)N2c1c(F)cccc1F [7(d), N-(3-{8-(2,6-Difluorophenyl)-7-oxo-2-[(2,2,6,6-tetramethyl-4-piperidinyl)amino]-5,6,7,8-tetrahydropyrimido[4,5-d]pyrimidin-4-yl}-4-methylphenyl)-3-thiophenecarboxamide]
10 | active | CSc1nc(-c2cc(C(=O)N(C)C)ccc2C)c2c(n1)N(c1c(F)cccc1F)C(=O)NC2 [149(a), 3-[8-(2,6-difluorophenyl)-2-(methylthio)-7-oxo-5,6,7,8-tetrahydropyrimido[4,5-d]pyrimidin-4-yl]-N,N,4-trimethylbenzamide]
11 | active | CCN(CC)CCCC(C)Nc1nc(-c2cc(C(=O)NC(C)C)ccc2C)c2c(n1)N(c1c(F)cccc1F)C(=O)NC2 (centres unmarked) [Example 85, 3-[2-{[4-(diethylamino)-1-methylbutyl]amino}-8-(2,6-difluorophenyl)-7-oxo-5,6,7,8-tetrahydropyrimido[4,5-d]pyrimidin-4-yl]-4-methyl-N-(1-methylethyl)benzamide trifluoroacetate]
12 | active | CC(C)NC(=O)c1cccc(-c2nc(NCCN(C)C)nc3c2CNC(=O)N3c2c(F)cccc2F)c1 [88(c), 3-(8-(2,6-difluorophenyl)-2-{[2-(dimethylamino)ethyl]amino}-7-oxo-5,6,7,8-tetrahydropyrimido[4,5-d]pyrimidin-4-yl)-N-(1-methylethyl)benzamide]
13 | active | Cc1ccc(C(=O)NCc2ccccc2)cc1-c1nc(NC2CCN(C(=O)OC(C)(C)C)CC2)nc2c1CNC(=O)N2c1c(F)cccc1F [21(a), 1,1-Dimethylethyl 4-{[8-(2,6-difluorophenyl)-4-(2-methyl-5-{[(phenylmethyl)amino]carbonyl}phenyl)-7-oxo-5,6,7,8-tetrahydropyrimido[4,5-d]pyrimidin-2-yl]amino}-1-piperidinecarboxylate]
14 | active | Cc1ccc(C(=O)Nc2ccc(F)cc2)cc1-c1nc(NCCNC(C)C)nc2c1CNC(=O)N2c1c(F)cccc1F [30(c), 3-[8-(2,6-difluorophenyl)-2-({2-[(1-methylethyl)amino]ethyl}amino)-7-oxo-5,6,7,8-tetrahydropyrimido[4,5-d]pyrimidin-4-yl]-N-(4-fluorophenyl)-4-methylbenzamide]

Row | Compound | active in the assay (pIC50, p38α binding)
15 | CSc1nc(-c2cc(NC(=O)c3ccsc3)ccc2C)c2c(n1)N(c1c(F)cccc1F)C(=O)NC2 [Example 10(c), N-{3-[8-(2,6-difluorophenyl)-2-(methylthio)-7-oxo-5,6,7,8-tetrahydropyrimido[4,5-d]pyrimidin-4-yl]-4-methylphenyl}-3-thiophenecarboxamide] | active

What follows are molecules tested on influx of neutrophils to the lung in LPS-challenged rats (assay: Rat LPS neutrophilia model). Details: LPS aerosol, lavage 4 hours later, in at least one of the range of conditions tested, significance p<0.05.
Assay type: in vivo
Description: The effect of compounds on the influx of neutrophils to the lung in LPS-challenged rats is evaluated as follows. The test compound is suspended in one of the following solutions: 0.5% tween 80/PBS, 0.5% tween 80/saline, 10% EtOH/saline (with pH adjusted to 2.0, or 8.0 with HCl, or unadjusted), Saline (pH 2.0, 6.5 or 8.0, 0.5% Tragacanth, 1% DMSO/20% Encapsin/Saline, or acidified 5% Tragacanth. The suspension process may be aided by the use of a glass homogenizer. For intratracheal administration, the animals are anesthetized with inhaled isoflurane and placed in a supine position, the trachea is intubated with a steel gavage needle (1.5 inch, 22 gauge, small ball) or a Penn-Century Microsprayer Aerosolizer (model IA-LB) and 200 ul of dosing solution is delivered. The animals are visually monitored during the recovery process, which typically occurs within two minutes.
Rats treated with compound or vehicle (15 min-24 hours pretreatment) are exposed to an LPS aerosol (100 ug/ml) for 15 min. Four hours later the rats are euthanized with pentobarbital (100 mg/kg, i.p.) and the airways are lavaged with 5 washes of 5 ml of phosphate buffered saline. The harvested cells are stained (Diffquick) and counted to determine total and differential cell data. In a typical study, macrophages represent 40-70% of the total cells, and polymorphonuclear cells 30-60% of the total cells. Inhibition of neutrophil levels relative to no compound controls is calculated based on the differential counts.
The assay has varying conditions, such as concentration, pretreat time, form of the compound (crystalline, amorphous, salts, micronised), and a wet or dry application of the compound.
The data is obtained as % inhibition using a particular concentration and pretreat time.

Row | Compound | inhibition of neutrophilia
16 | CCN(CC)CCCNc1nc(-c2cc(C(=O)Nc3ccc(F)cc3)ccc2C)c2c(n1)N(c1c(F)cccc1F)C(=O)NC2 [Example 43, 3-[2-{[3-(diethylamino)propyl]amino}-8-(2,6-difluorophenyl)-7-oxo-5,6,7,8-tetrahydropyrimido[4,5-d]pyrimidin-4-yl]-N-(4-fluorophenyl)-4-methylbenzamide] | inactive
17 | Cc1ccc(C(=O)NC(C)C)cc1-c1nc(N(C)CCN(C)C)nc2c1CNC(=O)N2c1c(F)cccc1F [Example 36, 3-{8-(2,6-difluorophenyl)-2-[[2-(dimethylamino)ethyl](methyl)amino]-7-oxo-5,6,7,8-tetrahydropyrimido[4,5-d]pyrimidin-4-yl}-4-methyl-N-(1-methylethyl)benzamide] | statistically significant inhibition of neutrophilia
